Read-outs that look alike come from different tables or passages of the source.
How the values were obtained:
[1] = molecular target: T1, Clr (Homo sapiens, UniProt P00736); assay: Anti-Cl esterase activity, Clr (AAME hydrolysis); format: biochemical; conditions: hydrolysis of AAME; read-out: Anti-Cl activity, Clr (ID50)
T1 sequence (P00736 464-705 limits assumed): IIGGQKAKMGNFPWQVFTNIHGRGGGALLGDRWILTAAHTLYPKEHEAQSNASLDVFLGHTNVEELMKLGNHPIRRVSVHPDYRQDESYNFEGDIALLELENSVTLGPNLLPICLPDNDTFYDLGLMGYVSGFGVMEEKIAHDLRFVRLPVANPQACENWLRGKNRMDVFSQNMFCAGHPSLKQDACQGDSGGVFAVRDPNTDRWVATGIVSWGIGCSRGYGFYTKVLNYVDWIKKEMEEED
T1 sequence (P00736 18-463 limits assumed): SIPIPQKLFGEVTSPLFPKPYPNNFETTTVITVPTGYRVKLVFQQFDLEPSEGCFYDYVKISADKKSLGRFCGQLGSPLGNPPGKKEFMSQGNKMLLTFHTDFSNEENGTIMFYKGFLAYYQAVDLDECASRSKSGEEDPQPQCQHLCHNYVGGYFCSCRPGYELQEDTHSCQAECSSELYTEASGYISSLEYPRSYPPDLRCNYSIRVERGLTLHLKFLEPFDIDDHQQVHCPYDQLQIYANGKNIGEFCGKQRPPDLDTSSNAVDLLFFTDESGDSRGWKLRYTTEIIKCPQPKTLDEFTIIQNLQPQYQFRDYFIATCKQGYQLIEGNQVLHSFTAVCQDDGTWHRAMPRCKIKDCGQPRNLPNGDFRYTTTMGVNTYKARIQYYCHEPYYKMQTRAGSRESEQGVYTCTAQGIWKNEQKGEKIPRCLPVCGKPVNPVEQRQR
Procedure: The anti-Cl esterase ([…]) activity was determined according to the method of Okamura et al. [K. Okamura, M. Muramatsu and B. Fujii, Biochem. Biophys.

[2] = molecular target: T2, Trypsin (Bos taurus, UniProt P00760); assay: Anti-trypsin activity (inhibition of TAME hydrolysis); format: biochemical; conditions: read-out: ID50, trypsin
T2 sequence (P00760 24-246): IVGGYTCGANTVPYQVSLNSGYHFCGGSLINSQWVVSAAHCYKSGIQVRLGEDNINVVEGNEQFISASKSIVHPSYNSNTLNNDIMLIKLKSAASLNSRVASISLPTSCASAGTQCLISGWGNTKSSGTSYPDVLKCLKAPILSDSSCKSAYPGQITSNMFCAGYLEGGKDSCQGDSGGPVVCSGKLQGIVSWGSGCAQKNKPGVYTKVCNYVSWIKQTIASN
Procedure: (§1) The anti-trypsin, anti-plasmin, anti-kallikrein and anti-thrombin activities were determined according to the method of Muramatsu et al. [M. Muramatsu, T. Onishi, S. Makino, Y. Hayashi and S. Fujii, J. of Biochem., 58, 214 (1965)]. The data summarized in Table 1 are expressed in terms of molar concentration (ID50) of the test compound which inhibits 50% of the activity of each enzyme to hydrolyze TAME (tosylarginine methyl ester). The compound No. corresponds to the compound number shown in Examples.

[3] = tested on: complement; assay: Inhibition of complement mediated hemolysis; format: cell-based
[4] = molecular target: Plasmin (Homo sapiens, UniProt P00747); assay: Anti-plasmin activity (inhibition of TAME hydrolysis); format: biochemical; conditions: read-out: ID50, plasmin
Procedure: as §1

[5] = tested on: Kallikrein; assay: Anti-kallikrein activity (inhibition of TAME hydrolysis); format: biochemical; conditions: read-out: ID50, kallikrein
Procedure: as §1

[6] = molecular target: Thrombin (Homo sapiens, UniProt P00734); assay: biochemical; conditions: read-out: ID50, thrombin
[7] = molecular target: T3, Cls (Homo sapiens, UniProt P09871); assay: Anti-Cl esterase activity, Cls (ATEE hydrolysis); format: biochemical; conditions: hydrolysis of ATEE; read-out: Anti-Cl activity, Cls (50% inhibition)
T3 sequence (P09871 438-688 limits assumed): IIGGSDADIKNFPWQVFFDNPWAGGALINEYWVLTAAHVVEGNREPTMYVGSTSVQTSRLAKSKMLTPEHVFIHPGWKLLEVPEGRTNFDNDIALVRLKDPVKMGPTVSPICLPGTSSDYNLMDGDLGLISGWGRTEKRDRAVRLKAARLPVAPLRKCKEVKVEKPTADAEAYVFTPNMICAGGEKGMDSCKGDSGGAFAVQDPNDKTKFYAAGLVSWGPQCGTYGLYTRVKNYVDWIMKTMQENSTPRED
T3 sequence (P09871 16-437 limits assumed): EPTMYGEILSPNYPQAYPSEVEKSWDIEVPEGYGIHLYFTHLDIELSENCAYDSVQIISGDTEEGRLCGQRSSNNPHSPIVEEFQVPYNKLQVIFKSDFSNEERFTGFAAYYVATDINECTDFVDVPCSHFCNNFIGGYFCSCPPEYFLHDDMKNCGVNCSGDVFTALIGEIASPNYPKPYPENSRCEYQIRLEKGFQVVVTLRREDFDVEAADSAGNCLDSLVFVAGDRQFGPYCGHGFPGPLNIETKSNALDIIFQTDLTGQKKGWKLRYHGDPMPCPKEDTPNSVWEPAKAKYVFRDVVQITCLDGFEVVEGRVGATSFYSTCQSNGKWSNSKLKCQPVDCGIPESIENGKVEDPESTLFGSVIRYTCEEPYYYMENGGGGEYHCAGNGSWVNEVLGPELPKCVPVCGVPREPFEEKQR
Procedure: The anti-Cl esterase (Clr, Cls) activity was determined according to the method of Okamura et al. [K. Okamura, M. Muramatsu and B. Fujii, Biochem. Biophys. […] The figures in Table 2 have the following meanings:
Cls: Molar concentration of the test compound which inhibits 50% of the ability of Cls to hydrolyse ATEE (acetyltyrosin ethyl ester).

Plasmin, sequence (P00747 581-810 limits assumed, species assumed): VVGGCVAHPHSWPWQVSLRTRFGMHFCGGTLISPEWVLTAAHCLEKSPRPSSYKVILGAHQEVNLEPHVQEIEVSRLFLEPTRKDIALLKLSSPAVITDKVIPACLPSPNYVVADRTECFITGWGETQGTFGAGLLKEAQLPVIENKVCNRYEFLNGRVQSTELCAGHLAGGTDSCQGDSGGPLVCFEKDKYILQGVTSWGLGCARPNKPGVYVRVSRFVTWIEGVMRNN
Plasmin, sequence (P00747 97-580 limits assumed, species assumed): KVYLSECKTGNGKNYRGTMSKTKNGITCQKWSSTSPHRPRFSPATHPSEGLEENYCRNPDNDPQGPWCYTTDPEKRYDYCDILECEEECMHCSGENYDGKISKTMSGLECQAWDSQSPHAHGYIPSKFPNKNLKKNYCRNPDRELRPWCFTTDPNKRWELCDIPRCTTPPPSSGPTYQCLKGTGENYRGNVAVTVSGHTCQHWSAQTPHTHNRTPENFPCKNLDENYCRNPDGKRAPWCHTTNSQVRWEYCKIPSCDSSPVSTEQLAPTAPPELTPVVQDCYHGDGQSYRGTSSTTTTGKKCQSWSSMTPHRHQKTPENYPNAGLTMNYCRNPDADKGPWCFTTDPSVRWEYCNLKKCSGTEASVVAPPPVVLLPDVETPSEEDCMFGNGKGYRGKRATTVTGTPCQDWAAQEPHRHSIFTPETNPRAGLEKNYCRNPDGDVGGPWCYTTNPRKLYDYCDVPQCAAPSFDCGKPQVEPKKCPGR

| IC50 [1] | IC50 [2] | IC50 [4] | IC50 [5] | IC50 ([6]; TAME hydrolysis) | IC50 [7] | IC50 [6] | SMILES | Inhibition of complement mediated hemolysis (%) ([3]; compound at 1 × 10^-4) | Inhibition of complement mediated hemolysis (%) ([3]; compound at 1 × 10^-5) | Inhibition of complement mediated hemolysis (%) ([3]; compound at 1 × 10^-6) | Inhibition of complement mediated hemolysis (%) ([3]; compound at 1 × 10^-7) |
| --- | --- | --- | --- | --- | --- | --- | --- | --- | --- | --- | --- |
| 2 µM | 8 µM | 3 µM | 40 µM | 20 µM | 3 µM |  | COc1cc(C(=N)N)ccc1OC(=O)/C=C/c1ccccc1 [Compound 31, 4-amidino-2-methoxyphenyl cinnamate] | 97.2% | 80.5% | 15.8% | 1.8% |
| 0.4 µM | 1 µM | 5 µM | > 10 µM | 3 µM | 0.3 µM |  | COc1cc(C(=N)N)ccc1OC(=O)c1ccc(C)cc1 [Compound 35] | 88.8% | 43.9% | 29.9% | 11.8% |
| > 10 µM | > 10 µM | > 10 µM | > 10 µM | > 10 µM | > 10 µM |  | COc1cc(C(=N)N)ccc1OC(=O)[C@H]1CC[C@H](CN)CC1 [Compound 17] | 98.6% | 78.2% | 20.4% | 0% |
| > 10 µM | 2 µM | 0.2 µM | 8 µM | 0.4 µM | 3 µM |  | N=C(N)c1ccc(OC(=O)C=Cc2ccc3c(c2)OCO3)c([N+](=O)[O-])c1 [Compound 48] | 94.0% | 94.8% | 75.3% | 23.2% |
| 3 µM | 4 µM | 4 µM | > 10 µM |  | 3 µM | 3 µM | N=C(N)c1ccc(OC(=O)C=Cc2ccccc2)c([N+](=O)[O-])c1 [Compound 34] | 99.6% | 96.7% | 53.7% | 12.4% |
| 3 µM | 0.8 µM | 0.4 µM | 1 µM | 0.03 µM | 0.3 µM |  | N=C(N)c1ccc(OC(=O)c2ccccc2)c(C(=O)c2ccccc2)c1 [Compound 29, 4-amidino-2-benzoylphenyl benzoate] | 98.4% | 97.9% | 67.8% | 8.0% |

The remaining lines, values behind:

| SMILES | IC50 [1] | IC50 [2] | IC50 [4] | IC50 [5] | IC50 ([6]; TAME hydrolysis) | IC50 [7] | IC50 [6] | Inhibition of complement mediated hemolysis (%) ([3]; compound at 1 × 10^-4) | Inhibition of complement mediated hemolysis (%) ([3]; compound at 1 × 10^-5) | Inhibition of complement mediated hemolysis (%) ([3]; compound at 1 × 10^-6) | Inhibition of complement mediated hemolysis (%) ([3]; compound at 1 × 10^-7) |
| --- | --- | --- | --- | --- | --- | --- | --- | --- | --- | --- | --- |
| COc1cc(C(=N)N)ccc1OC(=O)CCCCCNC(=N)N [Compound 14, 4-amidino-2-methoxyphenyl 6-guanidinocaproate] | > 10 µM | 10 µM | 10 µM | 10 µM | 10 µM | > 10 µM |  | 63.6% | 16.2% | 7.0% | 0% |
| COc1ccc(C(=O)Oc2ccc(C(=N)N)cc2C(=O)c2ccccc2)cc1 [Compound 42] | 1 µM | 0.07 µM | 0.3 µM | 0.3 µM | 0.07 µM | 0.04 µM |  | 100% | 99.1% | 70.0% | 7.6% |
| COc1cc(C(=N)N)ccc1OC(=O)c1ccc(CNC(=O)OCc2ccccc2)cc1 [Compound 57, 4-amidino-2-methoxyphenyl 4-benzyloxycarbonylaminomethylbenzoate] | > 10 µM | 2 µM | 0.2 µM | 3 µM | 8 µM | 2 µM |  | 70.5% | 14.8% | 2.3% | 0% |
| N=C(N)c1ccc(OC(=O)c2ccc(CNC(=O)OCc3ccccc3)cc2)c([N+](=O)[O-])c1 [Compound 61] | 0.4 µM | 0.2 µM | 0.2 µM | 1 µM | 0.4 µM | 0.3 µM |  | 98.6% | 100% | 98.0% | 76.1% |
| CC(C)(C)c1ccc(C(=O)Oc2ccc(C(=N)N)cc2C(=O)c2ccccc2)cc1 [Compound 39] | 0.4 µM | 0.01 µM | 0.2 µM | 0.4 µM | 0.2 µM | 0.2 µM |  | 0% | 95.4% | 96.8% | 52.1% |
| N=C(N)c1ccc(OC(=O)CCCc2ccccc2)c(C(=O)c2ccccc2)c1 [Compound 33] | > 10 µM | > 10 µM | > 10 µM | > 10 µM | > 10 µM | > 10 µM |  | 94.1% | 20.4% | 0% | 0% |
| N=C(N)c1cc(Br)c(OC(=O)c2ccc3c(c2)OCO3)c(Br)c1 [Compound 47, 4-amidino-2,6-dibromophenyl 3,4-methylenedioxybenzoate] | > 10 µM | > 10 µM | > 10 µM | > 10 µM | > 10 µM | 0.03 µM |  | 33.5% | 10.4% | 13.4% | 0% |
| CC=CC=CC(=O)Oc1ccc(C(=N)N)cc1C(=O)OC [Compound 5] | 5 µM | 0.7 µM | 0.3 µM | 1 µM | 2 µM | 0.9 µM |  | 100% | 97.0% | 47.2% | 3.0% |

Source: patent US4570006A, “Amidine compound, process for producing same and anti-complement agent comprising same” (Torii & Co. Ltd., priority 1981, dated 1986)
